# Values joined by “and” are separate entries in the source; they are usually repeats but may differ in a detail not shown here. Equal values may be shown once.
# Tests used:
# S. mutans biofilm [1] = assay: S. mutans biofilm formation inhibition; assay type: cell-based
# S. aureus MRSA 24433 = assay: Growth of MRSA 24433, cannabinoid alone and combined with antibiotic (MIC/FIC/FICI); assay type: cell-based; conditions: MRSA 24433 growth; for MIC AEA: AEA alone; for FIC AEA: MIC of AEA in combination with methicillin
# [2] = system: S. aureus MRSA 24433 biofilm; assay: Biofilm formation of MRSA 24433, cannabinoid alone and combined with antibiotic (MBIC/FBIC/FBICI); assay type: cell-based; conditions: for MBIC AEA: AEA alone; for FBIC AEA: MBIC of AEA in combination with methicillin
# S.aureus MRSA 33592 = assay: Growth of MRSA 33592, cannabinoid alone and combined with antibiotic (MIC/FIC/FICI); assay type: cell-based; conditions: MRSA 33592 growth; for MIC AEA: AEA alone, in µg/mL; for MIC ARAS: ARAS alone
# [3] = system: S.aureus MRSA 33592 biofilm; assay: Biofilm formation of MRSA 33592, cannabinoid alone and combined with antibiotic (MBIC/FBIC/FBICI); assay type: cell-based; conditions: for MBIC AEA: AEA alone; for MBIC ARAS: ARAS alone
# S.aureus MRSA 43300 = assay: Growth of MRSA 43300, cannabinoid alone and combined with antibiotic (MIC/FIC/FICI); assay type: cell-based; conditions: MRSA 43300 growth; for MIC AEA: AEA alone; for MIC ARAS: ARAS alone
# [4] = system: S.aureus MRSA 43300 biofilm; assay: Biofilm formation of MRSA 43300, cannabinoid alone and combined with antibiotic (MBIC/FBIC/FBICI); assay type: cell-based; conditions: for MBIC AEA: AEA alone; for MBIC ARAS: ARAS alone
# [5] = system: V. harveyi quorum sensing; assay: Quorum sensing assay, relative bioluminescence of V. harveyi mutant strains; assay type: cell-based; conditions: sub-MIC concentrations, dose response up to 100 μg/ml
# Description: FIG. 6 Relative Bioluminescence Unit (LUM/(O.D(595 nm))) (RLU) of different mutant strains of bacteria V. harveyi when exposed to different sub-MIC concentrations of AEA.
# C. albicans biofilm [6] = assay: MTT assay of C. albicans biofilm; assay type: cell-based
# Method: To investigate the effect of the agents on preformed biofilms, biofilms were allowed to mature in for 24 h at 37° C. in a 6-well plate. The biofilms were washed twice with PBS. The active agents were then applied. The plates were further incubated for 24 h at 37° C. The amounts of biofilms, were determined quantitatively using a standard MTT reduction assay as described previously. Briefly, biofilms were overlaid with […] of 3-(4,5-dimethyl-2-thiazolyl)-2,5-diphenyl-2H-tetrazolium bromide (MTT) and incubated for 2 h at 37° C. Under these conditions, the lightly yellowish MTT was reduced to a blue tetrazolium salt accumulated within the metabolic active biofilms. The stain was then dissolved in DMSO and the absorbance value was measured at 570 nm. The accumulation of tetrazolium salt by the reduction of MTT is proportional to the number of viable cells growing in biofilm. Prior to dissolving in DMSO, biofilms were photographed and visualized. Assay was performed in triplicate.
# P. aeruginosa biofilm = assay: CLSM of treated P. aeruginosa biofilm
# MRSA strain CI = assay: Colony spreading on soft agar, MRSA CI
# Method: (§1) The swimming assay was performed on soft agar plates. 0.2% agar medium was prepared and autoclaved. The bacteria were exposed to the tested agents. 3 μl of overnight bacterial culture (O.D 595˜0.5) was inoculated at the centre of the agar plate. […] The plates were then incubated for 15 h.
# MRSA strain 33592 = assay: Colony spreading on soft agar, MRSA 33592
# Method: as §1
# MRSA strain 43300 = assay: Colony spreading on soft agar, MRSA 43300
# Method: as §1
# S. mutans biofilm [7] = assay: CLSM live/dead staining of S. mutans biofilm
# Method: The bacterial viability and vitality of was analyzed by CLSM (Olympus Fluoview 300, Olympus, Japan) with a UPLSA 10×/0.4 lenses. The biofilm samples were grown overnight on 96 well. The biofilm was washed carefully using 200 μl PBS solution after overnight incubation, and then stained with 50 μl of LIVE/DEAD BacLight fluorescent dye (Invitrogen Life Technologies, Carlsbad, Calif., USA) (1:100) for 20 min in the dark, at room temperature. This staining allowed to distinguish the live organisms from the dead ones. […] The biofilm thickness was examined by generating the optical sections that were acquired at spacing steps of 10 μm Image J program (The National Institute of Health) was used for fluorescence analysis which calculates the fluorescence intensity per area for each color separately.
# C. albicans biofilm [8] = assay: C. albicans biofilm formation inhibition; assay type: cell-based; conditions: single C. albicans biofilm formation
# C. albicans = C. albicans growth (MIC); assay type: cell-based; conditions: Candida albicans; single C. albicans growth; highest tested dose 64 μg/ml; read-out: MIC, fungal growth
# [9] = system: mixed C. albicans-S. mutans biofilm; assay: Co-species C. albicans-S. mutans biofilm formation inhibition; assay type: cell-based
# [10] = system: mixed S. mutans-C. albicans; assay: Growth of C. albicans-S. mutans co-culture; assay type: cell-based; conditions: mixed S. mutans-C. albicans growth
# S. mutans = S. mutans growth (MIC); assay type: cell-based; conditions: Streptococcus mutans; single S. mutans growth; read-out: MIC
# [11] = system: fluconazole resistant C. albicans strains; assay type: cell-based; conditions: each agent alone or in combination; data not shown
# [12] = system: fluconazole resistant C. albicans strain DSY551 biofilm; conditions: Table 2
# [13] = system: fluconazole resistant C. albicans strain DSY735 biofilm; conditions: Table 2
# [14] = MBIC of ARAS in combination with fluconazole
compound,measurement,setting,value
"CCCCC/C=C\C/C=C\C/C=C\C/C=C\CCCC(=O)NCCO [AEA, arachidonoyl ethanolamide]",inhibition of S. mutans biofilm formation,S. mutans biofilm [1]; highest tested dose of 64 μg/ml,45%
same,MIC AEA,S. aureus MRSA 24433; Table 1,>64 µg/mL
same,MIC AEA,S. aureus MRSA 24433; Table 6B,> 256 µg/mL
same,FIC AEA,S. aureus MRSA 24433; Table 1,16 µg/mL
same,FIC AEA,S. aureus MRSA 24433; Table 6B,16
same,MBIC AEA,[2]; Table 1,32 µg/mL
same,MBIC AEA,[2]; Table 6B,32
same,FBIC AEA,[2]; Table 1,8 µg/mL
same,FBIC AEA,[2]; Table 6B,8
same,MIC AEA,S.aureus MRSA 33592; Table 6A,>256
same,MIC AEA,S.aureus MRSA 33592; Table 7,>256
same,MIC AEA,S.aureus MRSA 33592; Table 8A,>256
same,decrease of MIC in combination,S.aureus MRSA 33592; AEA with gentamicin vs agent alone,more than 32 fold
same,FIC AEA,"S.aureus MRSA 33592; MIC of AEA in combination with ampicillin, Table 8A",8
same,FIC AEA,"S.aureus MRSA 33592; MIC of AEA in combination with gentamicin, Table 7",8
same,FIC AEA,"S.aureus MRSA 33592; MIC of AEA in combination with methicillin, Table 6A",16
same,MBIC AEA,[3]; Table 6A,64
same,MBIC AEA,[3]; Table 7,64
same,MBIC AEA,[3]; Table 8A,64
same,FBIC AEA,"[3]; MBIC of AEA in combination with ampicillin, Table 8A",8
same,FBIC AEA,"[3]; MBIC of AEA in combination with gentamicin, Table 7",8
same,FBIC AEA,"[3]; MBIC of AEA in combination with methicillin, Table 6A",8
same,MIC AEA,S.aureus MRSA 43300; Table 6C,> 256 µg/mL
same,MIC AEA,S.aureus MRSA 43300; Table 8B,> 256 µg/mL
same,FIC AEA,"S.aureus MRSA 43300; MIC of AEA in combination with ampicillin, Table 8B",16
same,FIC AEA,"S.aureus MRSA 43300; MIC of AEA in combination with methicillin, Table 6C",16
same,MBIC AEA,[4]; Table 6C,>256
same,MBIC AEA,[4]; Table 8B,>256
same,FBIC AEA,"[4]; MBIC of AEA in combination with ampicillin, Table 8B",16
same,FBIC AEA,"[4]; MBIC of AEA in combination with methicillin, Table 6C",32
same,"quorum sensing (relative bioluminescence, AUC vs control)",[5],inhibition
same,C. albicans biofilm formation (MTT assay),C. albicans biofilm [6],dose-dependent inhibition
same,layers/depth of P. aeruginosa biofilm,P. aeruginosa biofilm,reduced layers/depth of biofilm
same,P. aeruginosa biofilm density,P. aeruginosa biofilm; compared with PEA,more significant reduction in biofilm density
same,reduction of colony diameter (spreading) vs untreated control,MRSA strain CI; AEA 64 μg/ml,88% and 88 ± 1.9%
same,reduction of colony diameter (spreading) vs untreated control,MRSA strain 33592; AEA 64 μg/ml,84% and 84 ± 1.8%
same,reduction of colony diameter (spreading) vs untreated control,MRSA strain 43300; AEA 64 μg/ml,73% and 73 ± 2.6%
same,S. mutans biofilm formation (CLSM),S. mutans biofilm [7],dose-dependent inhibition
"CCCCC/C=C\C/C=C\C/C=C\C/C=C\CCCC(=O)N[C@@H](CO)C(=O)O [ARAS, arachidonoyl serine]","MBIC50 (minimal biofilm inhibitory concentration 50, 50% of biofilm inhibition)",C. albicans biofilm [8],16 µg/mL
same,MIC,C. albicans,> 64 µg/mL
same,MBIC50,[9],32 µg/mL
same,MIC,[10],> 64 µg/mL
same,MIC,S. mutans,64 µg/mL
same,inhibition at 8 µg/mL,"S. mutans biofilm [1]; Streptococcus mutans, 8 μg/ml, read-out: inhibition of single S. mutans biofilm formation",> 50%
same,MIC ARAS,"S. aureus MRSA 24433; ARAS alone, Table 3B",> 256 µg/mL
same,FIC ARAS,"S. aureus MRSA 24433; MIC of ARAS in combination with methicillin, Table 3B",>64
same,MBIC ARAS,"[2]; ARAS alone, Table 3B",32
same,FBIC ARAS,"[2]; MBIC of ARAS in combination with methicillin, Table 3B",16
same,MIC ARAS,S.aureus MRSA 33592; Table 3A,64 µg/mL
same,MIC ARAS,S.aureus MRSA 33592; Table 4,32 µg/mL
same,MIC ARAS,S.aureus MRSA 33592; Table 5A,32 µg/mL
same,FIC ARAS,"S.aureus MRSA 33592; MIC of ARAS in combination with ampicillin, Table 5A",8
same,FIC ARAS,"S.aureus MRSA 33592; MIC of ARAS in combination with gentamycin, Table 4",4
same,FIC ARAS,"S.aureus MRSA 33592; MIC of ARAS in combination with methicillin, Table 3A",16
same,MBIC ARAS,[3]; Table 3A,32
same,MBIC ARAS,[3]; Table 4,32
same,MBIC ARAS,[3]; Table 5A,32
same,FBIC ARAS,"[3]; MBIC of ARAS in combination with ampicillin, Table 5A",16
same,FBIC ARAS,"[3]; MBIC of ARAS in combination with gentamycin, Table 4",4
same,FBIC ARAS,"[3]; MBIC of ARAS in combination with methicillin, Table 3A",16
same,MIC ARAS,S.aureus MRSA 43300; Table 3C,64 µg/mL
same,MIC ARAS,S.aureus MRSA 43300; Table 5B,64 µg/mL
same,FIC ARAS,"S.aureus MRSA 43300; MIC of ARAS in combination with ampicillin, Table 5B",16
same,FIC ARAS,"S.aureus MRSA 43300; MIC of ARAS in combination with methicillin, Table 3C",16
same,MBIC ARAS,[4]; Table 3C,32
same,MBIC ARAS,[4]; Table 5B,32
same,FBIC ARAS,"[4]; MBIC of ARAS in combination with ampicillin, Table 5B",8
same,FBIC ARAS,"[4]; MBIC of ARAS in combination with methicillin, Table 3C",8
same,growth of fluconazole resistant fungal strains,[11],not affected
same,MBIC ARAS,[12]; ARAS alone,64 µg/mL
same,FBIC ARAS,[12]; [14],32 µg/mL
same,MBIC ARAS,[13]; ARAS alone,64 µg/mL
same,FBIC ARAS,[13]; [14],32 µg/mL
same,inhibition of colony spreading vs untreated control,MRSA strain CI; ARAS 64 μg/ml (sub-MIC),64% and 64 ± 2.5%
same,inhibition of colony spreading vs untreated control,MRSA strain 33592; ARAS 16 μg/ml (sub-MIC),65% and 65 ± 3.4%
same,inhibition of colony spreading vs untreated control,MRSA strain 43300; ARAS 32 μg/ml (sub-MIC),46% and 46 ± 2.8%
